The text below walks through data of US20100267743A1, “3-(PHENOXYPYRROLIDIN-3-YL-METHYL)HETEROARYL, 3-(PHENYLPYRROLIDIN-3-YLMETHOXY)HETEROARYL, AND 3-(HETEROARYLPYRROLIDIN-3-YLMETHOXY)HETEROARYL COMPOUNDS” (priority 2009, published 2010).

The structures appear in SMILES notation. Bounds are passed on as bounds.

Test [1] deals with T1, SERT (Homo sapiens, UniProt P31645). As to conditions: cited from earlier work.
Target sequence in this assay (P31645 whole entry, species assumed): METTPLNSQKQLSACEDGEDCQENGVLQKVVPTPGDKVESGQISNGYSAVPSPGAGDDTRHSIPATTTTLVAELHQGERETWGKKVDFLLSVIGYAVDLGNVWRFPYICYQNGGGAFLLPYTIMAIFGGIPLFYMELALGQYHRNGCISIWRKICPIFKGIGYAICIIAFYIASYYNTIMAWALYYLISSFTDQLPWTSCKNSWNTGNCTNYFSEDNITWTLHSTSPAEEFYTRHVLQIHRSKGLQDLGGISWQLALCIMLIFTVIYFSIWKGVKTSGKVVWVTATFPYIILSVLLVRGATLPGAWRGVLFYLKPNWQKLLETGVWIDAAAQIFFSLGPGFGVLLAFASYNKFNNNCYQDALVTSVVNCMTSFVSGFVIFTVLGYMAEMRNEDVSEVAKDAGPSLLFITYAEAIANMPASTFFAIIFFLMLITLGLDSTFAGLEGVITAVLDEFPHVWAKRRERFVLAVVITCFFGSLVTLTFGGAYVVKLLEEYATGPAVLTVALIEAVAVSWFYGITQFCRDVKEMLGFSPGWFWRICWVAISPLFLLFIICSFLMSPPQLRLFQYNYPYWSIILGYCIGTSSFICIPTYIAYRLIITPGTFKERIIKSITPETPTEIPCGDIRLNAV
The target of test [2] is T2, NET (Homo sapiens, UniProt P23975). As to conditions: cited from earlier work.
T2 sequence (P23975 whole entry): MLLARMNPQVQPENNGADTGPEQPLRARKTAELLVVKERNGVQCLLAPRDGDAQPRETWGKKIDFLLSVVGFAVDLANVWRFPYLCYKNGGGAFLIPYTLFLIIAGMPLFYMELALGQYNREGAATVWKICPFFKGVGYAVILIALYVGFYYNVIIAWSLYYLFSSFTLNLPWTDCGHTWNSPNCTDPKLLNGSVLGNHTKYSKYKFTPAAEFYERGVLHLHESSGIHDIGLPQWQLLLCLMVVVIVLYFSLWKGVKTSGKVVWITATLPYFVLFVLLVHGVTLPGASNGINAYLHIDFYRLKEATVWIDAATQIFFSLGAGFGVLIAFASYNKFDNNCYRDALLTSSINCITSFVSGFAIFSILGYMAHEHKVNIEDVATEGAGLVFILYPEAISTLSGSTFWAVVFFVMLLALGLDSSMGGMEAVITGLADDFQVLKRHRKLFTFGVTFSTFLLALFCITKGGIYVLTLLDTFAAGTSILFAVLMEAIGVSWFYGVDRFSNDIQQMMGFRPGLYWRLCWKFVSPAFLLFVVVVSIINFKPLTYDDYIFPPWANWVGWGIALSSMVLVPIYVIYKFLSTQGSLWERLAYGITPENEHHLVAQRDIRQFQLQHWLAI
In test [3] the target is T1, SERT. Kind of test: hSERT radioligand binding assay (3H-citalopram). Also on record: expressed in transfected cells; host or cells: HEK-293. As to conditions: hSERT membranes (HEK-293), 1.0 nM 3H-citalopram; for Ki: read-out: SERT pKi (converted). The method, boiled down:
(§1)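 Membranes came from HEK-293 cells stably expressing hSERT (0.5 μg protein) or hNET (1 μg), with 3H-citalopram or 3H-nisoxetine respectively. Incubation was 60 min at 22° C in Tris buffer with 120 mM NaCl and 5 mM KCl, pH 7.4, followed by filtration and scintillation counting. pKi was derived by Cheng-Prusoff from IC50 and saturation-derived Kd.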
Target sequence in this assay (P31645 whole entry): as the sequence (P31645 whole entry, species assumed) above

Test [4] addresses T2, NET. Kind of test: hNET radioligand binding assay (3H-nisoxetine). Set-up: expressed in transfected cells; host or cells: HEK-293. As to conditions: hNET membranes (HEK-293), 1.0 nM 3H-nisoxetine; for Ki: read-out: NET pKi (converted). The method, boiled down:
as §1

By pKi is commonly meant the Ki on a negative log10 scale, so that one unit is a factor of ten. For the compound `Cc1ccc(C23CNCC2C3)cc1` (stereo not drawn) [bicifadine], the “pKi at SERT” value on SERT [1] is reported as 7.0. Besides, the “pKi at NET” value at NET [2] is 6.7. Consider `CCN(CC)C(=O)C1(c2ccccc2)CC1CN` (stereo not drawn) [milnacipran], for which, at SERT [1], the “selectivity (measured as pKi) for SERT over NET” value was 2.5 fold. For the compound `Clc1cnc(OC(c2ccccc2)C2CCNC2)c(Cl)c1` (stereo not drawn) [14-14], the “SERT pKi” value at SERT [3] is “≧7.0”. The “NET pKi” value at NET [4] is “≧7.0”. On to `Cc1cc(Cl)ccc1O[C@@H](c1ncco1)[C@H]1CCNC1.O=C(O)C(F)(F)F` [6-34], for which the “SERT pKi” value on SERT [3] is “≧7.0”. Further, the “NET pKi” value at NET [4] is listed as “≧7.0”.

Regarding `Fc1cc(Cl)cc(F)c1OC(c1cncc(Cl)c1)C1CCNC1` [Example 2-25, 3-Chloro-5-[(R)-(4-chloro-2,6-difluorophenoxy)-(S)-pyrrolidin-3-yl-methy1]-pyridine], the Ki on SERT [3] and on NET [4] was no more than 100 nM in each case.

For `Fc1ccc(F)c(O[C@H](c2cncnc2)[C@H]2CCNC2)c1Cl` [12-2], the Ki was no more than 100 nM at SERT [3] and no more than 10000 nM on NET [4].

For the compound `c1ccc(C(Oc2ccccn2)C2CCNC2)cc1` (stereo not drawn) [14-40], the figures for the Ki on SERT [3] and on NET [4] were no more than 10000 nM and no more than 100 nM, respectively. For the compound `Cc1cc(Cl)c(OC(c2nccs2)C2CCNC2)c(Cl)c1.O=C(O)C(F)(F)F` (mixture of isomers) [Example 5-12, 2-[((S)-(2,6-Dichloro-4-methylphenoxy)-pyrrolidin-3-yl-methyl]thiazole], the “SERT pKi” value at SERT [3] is “≧7.0”. At NET [4], the “NET pKi” value is given as “≧5.0”. For `Cc1c(O[C@@H](c2ccccc2)[C@H]2CCNC2)ccnc1Cl.O=C(O)C(F)(F)F` [16-1], the “SERT pKi” value on SERT [3] is reported as “≧7.0”. At NET [4], the “NET pKi” value is listed as “≧5.0”. With `COc1ccccc1OC(c1cccnc1)[C@H]1CCNC1` (stereo partly drawn) [Example 2-81, 3-[(S)-(2-Methoxyphenoxy)-pyrrolidin-3-yl-methyl]pyridine], the Ki on SERT [3] was no more than 10000 nM; at NET [4] it was no more than 100 nM.

As for `COc1ccccc1O[C@@H](c1ncco1)[C@H]1CCNC1.O=C(O)C(F)(F)F` [6-52], the “SERT pKi” value on SERT [3] is reported as “≧5.0”. The “NET pKi” value at NET [4] is recorded as “≧7.0”. Turning to `Cc1ccccc1C(Oc1cccc2ccccc12)C1CCNC1` (stereo not drawn) [21-3], the Ki on SERT [3] and on NET [4] was no more than 100 nM in each case.

Take `Fc1cccc(C(Oc2cccc3ccccc23)C2CCNC2)c1` (stereo not drawn) [21-4]: the Ki on SERT [3] and on NET [4] was no more than 100 nM in each case. With `CCCOc1ncccc1O[C@@H](c1ccccc1)[C@H]1CCNC1.O=C(O)C(F)(F)F` [15-19], the “SERT pKi” value on SERT [3] is “≧7.0”. At NET [4], the “NET pKi” value is recorded as “≧7.0”.
